Here are results for 25 compounds from patent US4159328A, “Tetrahydro-1,3,5-thiadiazin-4-one derivative” (Nihon Nohyaku Co., Ltd., priority 1977, dated 1979).

Holding throughout (type): in vivo
In data set [1] the test system is two-spotted spider mite (Tetranychus urticae Koch). The data set is described as follows: Test Example 3: activity to two-spotted spider mite. From the text: Activity to two-spotted spider mite (Tetranychus urticae Koch).
Testing method: Two-spotted spider mites were set free on the pot-planted soybean in a greenhouse. On the next day, a test composition of 1,000 ppm concentration was sprayed over the soybean by means of a spray gun. Two days or five days after the treatment, dead-and-survival was inspected to calculate the mortality.

The subject of data set [2] is cirrus red mite (Panonychus citri McGregor). The data set is described as follows: Test Example 4: activity to citrus red mite (Rothamstead method). The following applies: two days after treatment, 25° C.; 2880 min. On the set-up: concentration or dose not given beside the values. The procedure: Activity to cirrus red mite (Panonychus citri McGregor).
Testing method: The test was performed by Rothamstead method. A test composition was sprayed by means of a spray gun over grapefruit leaves infested with citrus red mites. After air-drying the grapefruit was left standing in a constant temperature cabinet at 25° C. Two days after the treatment, the number of survived mites was counted to calculate the mortality.

For data set [3], the system named is larvae of brown planthopper (Nilaparvata lugens Stahl). The experiment in a line: Test Example 1: insecticidal activity against larvae of brown planthopper. The following applies: third-instar larvae, 25° C. A digest of the protocol: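 Rice seedlings at 1.5-leaf stage were dipped for 30 s in a 400 ppm test composition, air-dried, and infested with third-instar N. lugens larvae. After holding at 25 °C, mortality was scored 5 or 7 days post-treatment from three replicates.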

Data set [4] concerns larvae of green rice leafhopper (Nephotettix cincticeps Uhler). The data set is described as follows: Test Example 5: activity against larvae of green rice leafhopper. The following applies: 168 h, 400 ppm, second-instar larvae, 25° C., seven days after treatment, read-out: Mortality. The procedure: Activity against larvae of green rice leafhopper (Nephotettix cincticeps Uhler).
Testing method: Five rice seedlings of the 1.5 leaf age were dipped in a test composition of 400 ppm concentration for 30 seconds. After air-drying, the seedlings were placed in a glass tube containing 1 ml of water and infested with five second-instar larvae of green rice leafhopper. The glass tube was left standing in a constant temperature cabinet at 25° C. Seven days after the treatment, dead-and-survivalwas inspected to calculate the mortality (3-replication test).

Data set [5] relates to larvae of white-backed planthopper (Sogatella furcifera Horvath). The data set is described as follows: Test Example 2: insecticidal activity against larvae of white-backed planthopper. The following applies: 168 h, 400 ppm, first-instar larvae, 25° C., seven days after treatment, read-out: Mortality. The procedure:
Insecticidal activity against larvae of white-backed planthopper (Sogatella furcifera Horvath).
Testing method: Five rice seedlings of the 1.5 leaf age were dipped in a test composition of 400 ppm concentration for 30 seconds. After air-drying, the seedlings were placed in a glass tube containing 1 ml of water and infested with five first-instar larvae of white-backed planthopper. The glass tube was left standing in a constant temperature cabinet at 25° C. and seven days after the treatment, dead-and-survival was observed. Mortality was calculated from the results of 3-replication test.

In data set [6] the test system is larvae of 28-spotted lady beetle (Epilachna vigintioctopunctana Fabricius). The experiment in a line: Test Example 8: insecticidal activity against larvae of 28-spotted lady beetle. The following applies: 120 h. As to the method: Insecticidal activity against larvae of 28-spotted lady beetle (Epilachna vigintioctopunctana Fabricius).
Testing method: Leaflets of tomato grown in a greenhouse were dipped in a test composition of 100 ppm concentration for 30 seconds and after that the leaflets were dried by air. In a Petri dish covered on the bottom with a piece of filter paper, were introduced 1 ml of water and three treated tomato leaflets. After having been infested with seven second-instar larvae of 28-spotted lady beetle, the Petri dish was left standing in a constant temperature cabinet at 25° C. Five days after the treatment, the dead-and-survival was inspected to calculate the mortality (2-replication test).

Data set [7] deals with larvae of house mosquito (Culex pipiens pallens Coquillett). The experiment in a line: Test Example 6: insecticidal activity to larvae of house mosquito. The following applies: 120 h. As to the method:
Insecticidal activity to larvae of house mosquito (Culex pipiens pallens Coquillett).
Test method: In a 200-ml beaker, was placed together with a feed 100 ml of a test composition diluted with deionized water to 10 ppm concentration. The test composition was infested with 20 first-instar larvae of house mosquito and the beaker was covered with a sheet of Japanese paper. The beaker was kept in a constant temperature cabinet at 25° C. Five days after the treatment, the dead-and-survival was inspected to calculate the mortality.

The mark [8] stands for this setting: 48 h, 1,000 ppm, 2 days after treatment.
Setting [9] is: 120 h, 1,000 ppm, 5 days after treatment.

The term mortality denotes the percentage killed. Compound `CC(C)N=C1SCN(C)C(=O)N1C(C)C` [Compound 2, 2-Isopropylimino-3-isopropyl-5-methyl-tetrahydro-1,3,5-thiadiazin-4-one] returned a mortality at 1000 ppm in data set [1] (setting [8]) of 100%. In data set [2], this compound came in with a Mortality of 50%. Moreover, the mortality at 400 ppm in data set [3] (168 h, 7 days after treatment) worked out at 100%; in data set [4], 50%; in data set [5] it was 100%.
For the compound `CCN1CSC(=NC(C)(C)C)N(C)C1=O` [Compound 6], the mortality at 1000 ppm in data set [1] (setting [8]) worked out at 100%. This compound showed a Mortality in data set [2] of 80%. Further, the mortality at 400 ppm in data set [3] (168 h, 7 days after treatment) worked out at 100%; in data set [4] it was 80%; in data set [5], 100%.
`CCN1CSC(=NC(C)C)N(C(C)C)C1=O` [Compound 8]: in data set [1] (setting [8]), the mortality at 1000 ppm is 100%. In data set [2], this compound registered a Mortality of 80%. The mortality at 400 ppm came out at 100% in data set [3] (168 h, 7 days after treatment); 80% in data set [4]; 100% in data set [5].
Turning to `C=CCN1CSC(=NC)N(C)C1=O` [Compound 9], the mortality at 1000 ppm in data set [1] (setting [8]) is 80%. The same compound had a Mortality in data set [2] of 50%. For the same compound, the mortality at 400 ppm in data set [3] (168 h, 7 days after treatment) was determined as 100%; in data set [4], 100%; in data set [5], 100%.
`C=CCN1CSC(=NC(C)C)N(C)C1=O` [Compound 10] had a mortality at 1000 ppm in data set [1] (setting [8]) of 100%. For the same compound, the Mortality in data set [2] is 80%. The mortality at 400 ppm in data set [3] (168 h, 7 days after treatment) amounted to 100%; in data set [4], 100%; in data set [5] it was 100%.
As to `CCCN1CSC(=NC(C)C)N(C(C)C)C1=O` [Compound 14], the mortality at 1000 ppm in data set [1] (setting [8]) is 100%. Further, in data set [2], the Mortality was determined as 50%. For the same compound, the mortality at 400 ppm was 80% in data set [3] (168 h, 7 days after treatment); 100% in data set [4]; 100% in data set [5].
`CN=C1SCN(C(C)C)C(=O)N1C` [Compound 16]: in data set [1] (setting [8]), the mortality at 1000 ppm is 100%. This compound had a Mortality in data set [2] of 100%. In addition, the mortality at 400 ppm was 100% in data set [3] (168 h, 7 days after treatment); 100% in data set [4]; 100% in data set [5].
Regarding `CN=C1SCN(c2ccccc2)C(=O)N1C` [Compound 115, 2-Methylimino-3-methyl-5-phenyl-tetrahydro-1,3,5-thiadiazin-4-one], the Mortality in data set [2] is given as 100%.
`CN1C(=N)SCN(c2ccccc2)C1=O` [Compound 123] showed a Mortality in data set [2] of 100%. Moreover, the mortality at 400 ppm in data set [3] (5 or 7 days after treatment (No. 123 not covered by footnote)) was determined as 100%.
As to `Cc1ccccc1N=C1SCN(c2ccccc2)C(=O)N1C` [Compound 124, 2-(2-Methyl)phenylimino-3-methyl-5-phenyltetrahydro-1,3,5-thiadiazin-4-one], the Mortality in data set [2] was 100%.
As for `CCCCCCN1C(=O)N(c2ccccc2)CSC1=NC(C)C` [Compound 153], the Mortality in data set [2] came to 100%. The mortality at 400 ppm in data set [4] came out at 100%.
Consider `CCCCCCCCN1C(=O)N(c2ccccc2)CSC1=NC(C)CC` (stereo not shown) [Compound 161], for which, in data set [2], the Mortality came to 100%.
In data set [1] (setting [9]), `CC(C)N1C(=O)N(c2ccccc2Cl)CSC1=NC(C)(C)C` [Compound 245, 2-t-butylimino-3-isopropyl-5-(o-chlorophenyl)-tetrahydro-1,3,5-thiadiazin-4-one] displayed a mortality at 1000 ppm of 100%. For the same compound, the mortality at 100 ppm in data set [6] was 90%. Also, the mortality at 400 ppm in data set [3] (120 h, 5 days after treatment) turned out to be 100%; in data set [4] it was 100%; in data set [5] it was 100%. In addition, the mortality at 10 ppm in data set [7] stood at 100%.
`CCCCCCN=C1SCN(c2ccc(F)cc2)C(=O)N1CCC` [Compound 281]: the Mortality in data set [2] came to 100%.
`CCC(C)N=C1SCN(c2ccc(F)cc2)C(=O)N1C(C)CC` (stereo not shown) [Compound 283] gave a mortality at 1000 ppm in data set [1] (setting [9]) of 70%. Moreover, the mortality at 100 ppm in data set [6] stood at 90%. In addition, the mortality at 400 ppm in data set [3] (120 h, 5 days after treatment) amounted to 100%; in data set [4] it was 90%; in data set [5], 100%. Besides, in data set [7], the mortality at 10 ppm was determined as 70%.
For the compound `CCC(C)N1C(=O)N(c2ccc(F)cc2)CSC1=NC(C)(C)C` (stereo not shown) [Compound 284], the mortality at 1000 ppm in data set [1] (setting [9]) amounted to 100%. This compound returned a mortality at 100 ppm in data set [6] of 100%. For the same compound, the mortality at 400 ppm in data set [3] (120 h, 5 days after treatment) is 100%; in data set [4] it was 100%; in data set [5] it was 100%. In data set [7], this compound showed a mortality at 10 ppm of 100%.
`CC(C)N=C1SCN(c2ccc(F)cc2)C(=O)N1C(C)C` [Compound 285] gave a mortality at 1000 ppm in data set [1] (setting [9]) of 100%. This compound also had a mortality at 100 ppm in data set [6] of 80%. In addition, the mortality at 400 ppm in data set [3] (120 h, 5 days after treatment) stood at 100%; in data set [4], 100%; in data set [5], 100%. This compound returned a mortality at 10 ppm in data set [7] of 100%.
As for `CN=C1SCN(c2ccc(Br)cc2)C(=O)N1C` [Compound 291], in data set [1] (setting [9]), the mortality at 1000 ppm amounted to 100%. The mortality at 100 ppm in data set [6] worked out at 100%. The mortality at 400 ppm in data set [3] (120 h, 5 days after treatment) was 100%; in data set [4], 100%; in data set [5], 100%. The compound further showed a mortality at 10 ppm in data set [7] of 70%.
The compound `Cc1ccccc1N1CSC(=NC(C)(C)C)N(C(C)C)C1=O` [Compound 302] showed a mortality at 1000 ppm in data set [1] (setting [9]) of 70%. In data set [6], the mortality at 100 ppm is 80%. The mortality at 400 ppm in data set [3] (120 h, 5 days after treatment) came to 100%; in data set [4], 100%; in data set [5], 100%. Also, the mortality at 10 ppm in data set [7] worked out at 100%.
`CN=C1SCN(c2ccc(C)cc2)C(=O)N1C` [Compound 309] displayed a Mortality in data set [2] of 100%.
With `Cc1ccc(N2CSC(=NC(C)C)N(C)C2=O)cc1` [Compound 310], the Mortality in data set [2] amounted to 100%. This compound also had a mortality at 10 ppm in data set [7] of 100%.
Regarding `CCC(C)N1C(=O)N(c2cccc(C)c2)CSC1=NC(C)(C)C` (stereo not shown) [Compound 328], the mortality at 1000 ppm in data set [1] (setting [9]) worked out at 100%. In addition, the mortality at 100 ppm in data set [6] is 100%. The mortality at 400 ppm in data set [3] (120 h, 5 days after treatment) came to 90%; in data set [4] it was 100%; in data set [5], 100%. The compound further gave a mortality at 10 ppm in data set [7] of 100%.
In data set [1] (setting [9]), `COc1ccc(N2CSC(=NC(C)(C)C)N(C(C)C)C2=O)cc1` [Compound 353, 2-t-Butylimino-3-isopropyl-5-(p-methoxyphenyl)tetrahydro-1,3,5-thiadiazin-4-one] returned a mortality at 1000 ppm of 100%. Besides, in data set [6], the mortality at 100 ppm worked out at 100%. The mortality at 400 ppm in data set [3] (120 h, 5 days after treatment) turned out to be 100%; in data set [4], 100%; in data set [5], 100%. The mortality at 10 ppm in data set [7] was 100%.
In turn, `CCC(C)N1C(=O)N(c2ccc(OC)cc2)CSC1=NC(C)(C)C` (stereo not shown) [Compound 355, 2-t-butylimino-3-s-butyl-5-(p-methoxyphenyl)-tetrahydro-1,3,5-thiadiazin-4-one] returned a mortality at 1000 ppm in data set [1] (setting [9]) of 100%. The same compound had a mortality at 100 ppm in data set [6] of 100%. For the same compound, the mortality at 400 ppm in data set [3] (120 h, 5 days after treatment) is 100%; in data set [4], 100%; in data set [5], 100%. The same compound yielded a mortality at 10 ppm in data set [7] of 90%.
In data set [1] (setting [9]), `CCOc1ccc(N2CSC(=NC(C)(C)C)N(C(C)CC)C2=O)cc1` (stereo not shown) [Compound 368, 2-t-Butylimino-3-s-butyl-5-(4-ethoxyphenyl)tetrahydro-1,3,5-thiadiazin-4-one] showed a mortality at 1000 ppm of 100%. In addition, the Mortality in data set [2] is reported as 100%. In addition, the mortality at 400 ppm in data set [3] (120 h, 5 days after treatment) turned out to be 80%.
